Earlier results in patent US20090208944A1 (priority 2005, published 2009).

Target: CYP2D6 enzyme system (Homo sapiens, UniProt P10635)
Settings: classification from literature

Sequence of CYP2D6 enzyme system (P10635 whole entry): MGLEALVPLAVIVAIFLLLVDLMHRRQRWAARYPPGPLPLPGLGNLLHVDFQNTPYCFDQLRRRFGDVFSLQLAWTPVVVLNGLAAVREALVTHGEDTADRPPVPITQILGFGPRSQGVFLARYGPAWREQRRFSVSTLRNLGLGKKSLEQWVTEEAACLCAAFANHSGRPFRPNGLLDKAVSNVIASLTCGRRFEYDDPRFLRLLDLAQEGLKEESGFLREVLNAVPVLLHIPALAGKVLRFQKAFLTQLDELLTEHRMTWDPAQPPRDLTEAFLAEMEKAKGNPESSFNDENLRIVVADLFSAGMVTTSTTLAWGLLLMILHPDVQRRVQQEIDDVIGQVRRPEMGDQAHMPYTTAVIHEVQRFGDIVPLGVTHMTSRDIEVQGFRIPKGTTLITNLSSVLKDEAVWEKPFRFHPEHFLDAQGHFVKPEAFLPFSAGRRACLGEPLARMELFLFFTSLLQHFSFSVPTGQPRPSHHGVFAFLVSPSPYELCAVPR

Row | SMILES | potency as inhibitor of the CYP2D6 enzyme system
1 | CN[C@H]1CC[C@@H](c2ccc(Cl)c(Cl)c2)c2ccccc21 [sertraline] | Moderate
2 | CN(C)CCC=C1c2ccccc2COc2ccccc21 [doxepin] | Moderate
3 | CN/C(=N/CCSCc1nc[nH]c1C)NC#N [cimetidine] | Moderate
4 | Fc1ccc([C@@H]2CCNC[C@H]2COc2ccc3c(c2)OCO3)cc1 [paroxetine] | Potent
5 | O=C(CCCN1CCC(O)(c2ccc(Cl)cc2)CC1)c1ccc(F)cc1 [haloperidol] | Moderate
